Measurements published in patent US11045448B2, “Piperidines as covalent menin inhibitors” (THE REGENTS OF THE UNIVERSITY OF MICHIGAN, priority 2017, dated 2021).

These molecules were tested against menin protein (Homo sapiens (Human), UniProt O00255) (assay: Fluorescence polarization (FP) competitive binding assay, menin binding affinity). Details: menin protein 4 nM, probe 2 nM, room temperature 30 minutes.
Description: A fluorescence polarization (FP) competitive binding assay was used to determine the binding affinities of representative menin inhibitors. A FAM labeled fluorescent probe was designed and synthesized based on a MLL1 peptide (FAM-MM2). Equilibrium dissociation constant (Kd) value of FAM-MM2 to menin protein was determined from protein saturation experiments by monitoring the total fluorescence polarization of mixtures composed with the fluorescent probe at a fixed concentration and the protein with increasing concentrations up to full saturation. Serial dilutions of the protein were mixed with FAM-MM2 to a final volume of 200 μl in the assay buffer (PBS with 0.02% Bovine γ-Globulin and 4% DMSO. 0.01% Triton X-100 was added right before assays). Final FAM-MM2 concentration was 2 nM. Plates were incubated at room temperature for 30 minutes with gentle shaking to assure equilibrium. FP values in millipolarization units (mP) were measured using the Infinite M-1000 plate reader (Tecan U.S., Research Triangle Park, N.C.) in Microfluor 1 96-well, black, v-bottom plates (Thermo Scientific, Waltham, Mass.) at an excitation wavelength of 485 nm and an emission wavelength of 530 nm.
The IC50, see Table 3, of representative Compounds of the Disclosure were determined in a competitive binding experiment. Mixtures of 5 μl of the tested compounds in DMSO and 195 μl of preincubated protein/probe complex solution in the assay buffer were added into assay plates which were incubated at room temperature for 30 minutes with gentle shaking. Final concentration of the menin protein was 4 nM, and final probe concentration is 2 nM. Negative controls containing protein/probe complex only (equivalent to 0% inhibition), and positive controls containing only free probes (equivalent to 100% inhibition), were included in each assay plate. FP values were measured as described above. IC50 values were determined by nonlinear regression fitting of the competition curves.

Sequence of menin protein (O00255 whole entry): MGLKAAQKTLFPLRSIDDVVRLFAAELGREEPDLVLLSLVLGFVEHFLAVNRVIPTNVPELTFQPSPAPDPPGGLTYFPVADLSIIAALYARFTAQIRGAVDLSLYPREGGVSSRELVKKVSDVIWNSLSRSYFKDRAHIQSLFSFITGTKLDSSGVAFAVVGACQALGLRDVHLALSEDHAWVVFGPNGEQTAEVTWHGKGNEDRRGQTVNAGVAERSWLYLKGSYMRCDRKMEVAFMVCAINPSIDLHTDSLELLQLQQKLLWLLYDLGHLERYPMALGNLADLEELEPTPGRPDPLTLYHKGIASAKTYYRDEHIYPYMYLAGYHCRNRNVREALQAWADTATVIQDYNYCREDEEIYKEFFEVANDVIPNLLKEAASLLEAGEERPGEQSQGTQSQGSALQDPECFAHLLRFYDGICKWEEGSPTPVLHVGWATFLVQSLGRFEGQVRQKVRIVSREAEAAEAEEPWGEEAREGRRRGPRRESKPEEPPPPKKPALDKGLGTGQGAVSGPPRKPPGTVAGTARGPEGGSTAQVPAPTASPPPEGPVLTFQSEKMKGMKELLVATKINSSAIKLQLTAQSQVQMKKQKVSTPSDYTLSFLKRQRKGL

Row | SMILES | IC50 [nM]
1 | C=CC(=O)Nc1cccc(S(=O)(=O)c2ccc(N3CC(F)(CN4CCC([C@@](C#N)(c5cccc(F)c5)[C@H]5CCC[C@@H]5NC(=O)OC)CC4)C3)cc2)c1 [Cpd. No. 12, methyl ((1S,2R)-2-((S)-(1-((1-(4-((3-acrylamidophenyl)sulfonyl)phenyl)-3-fluoroazetidin-3-yl)methyl)piperidin-4-yl)(cyano)(3-fluorophenyl)methyl)cyclopentyl)carbamate] | 42
2 | C=CC(=O)N1CC(S(=O)(=O)c2ccc(OCCOc3ccc([C@](C#N)(c4cccc(F)c4)[C@H]4CCC[C@@H]4NC(=O)OC)cc3)cc2)C1 [Cpd. No. 65, methyl ((1S,2R)-2-((S)-(4-(2-(4-((1-acryloylazetidin-3-yl)sulfonyl)phenoxy)ethoxy)phenyl)(cyano)(3-fluorophenyl)methyl)cyclopentyl)carbamate] | > 10000
3 | C=CC(=O)Nc1cccc(S(=O)(=O)c2ccc(N3CC(CN4CCC([C@](C#N)(c5cccc(F)c5)[C@H]5CCC[C@@H]5NC(=O)OC)CC4)C3)cc2)c1 [Cpd. No. 70, methyl ((1S,2R)-2-((R)-(1-((1-(4-((3-acrylamidophenyl)sulfonyl)phenyl)azetidin-3-yl)methyl)piperidin-4-yl)(cyano)(3-fluorophenyl)methyl)cyclopentyl)carbamate] | > 10000
4 | C=CC(=O)N1CC(S(=O)(=O)c2ccc(OCCOc3ccc([C@@](C#N)(c4cccc(F)c4)[C@H]4CCC[C@@H]4NC(=O)OC)cc3)cc2)C1 [Cpd. No. 64, methyl ((1S,2R)-2-((R)-(4-(2-(4-((1-acryloylazetidin-3-yl)sulfonyl)phenoxy)ethoxy)phenyl)(cyano)(3-fluorophenyl)methyl)cyclopentyl)carbamate] | > 10000
5 | COC(=O)N[C@H]1CCC[C@@H]1[C@](C#N)(c1cccc(F)c1)C1CCN(CC2CN(c3ccc(S(=O)(=O)c4cccc(NC(=O)/C=C/CN5CCOCC5)c4)cc3)C2)CC1 [Cpd. No. 58, methyl ((1S,2R)-2-((S)-cyano(3-fluorophenyl)(1-((1-(4-((3-((E)-4-morpholinobut-2-enamido)phenyl)sulfonyl)phenyl)azetidin-3-yl)methyl)piperidin-4-yl)methyl)cyclopentyl)carbamate] | 5
6 | C=CS(=O)(=O)N[C@H]1CCC[C@@H]1[C@](C#N)(c1cccc(F)c1)C1CCN(CC2CN(c3ccc(C#N)cc3)C2)CC1 [Cpd. No. 79, N-((1S,2R)-2-((S)-cyano(1-((1-(4-cyanophenyl)azetidin-3-yl)methyl)piperidin-4-yl)(3-fluorophenyl)methyl)cyclopentyl)ethenesulfonamide] | 1070
7 | C=CC(=O)N1CC(S(=O)(=O)c2ccc(N3CC(CN4CCC([C@](C#N)(c5cccc(F)c5)[C@H]5CCC[C@@H]5OC(=O)NC)CC4)C3)cc2)C1 [Cpd. No. 2, (1S,2R)-2-((R)-(1-((1-(4-((1-acryloylazetidin-3-yl)sulfonyl)phenyl)azetidin-3-yl)methyl)piperidin-4-yl)(cyano)(3-fluorophenyl)methyl)cyclopentyl methylcarbamate] | 374
8 | COC(=O)N[C@H]1CCC[C@@H]1[C@](C#N)(c1cccc(F)c1)C1C[C@@H](C)N(CC2CN(c3ccc(S(=O)(=O)C4CN(C(=O)/C=C/CN(C)C)C4)cc3)C2)[C@@H](C)C1 (stereo partly drawn) [Cpd. No. 75, methyl ((1S,2R)-2-((1S)-cyano((2R,6S)-1-((1-(4-((1-((E)-4-(dimethylamino)but-2-enoyl)azetidin-3-yl)sulfonyl)phenyl)azetidin-3-yl)methyl)-2,6-dimethylpiperidin-4-yl)(3-fluorophenyl)methyl)cyclopentyl)carbamate] | 6
9 | C=CC(=O)N1CC(S(=O)(=O)c2ccc(N3CC(F)(CN4CCC([C@@](C#N)(c5cccc(F)c5)[C@H]5CCC[C@@H]5NC(=O)OC)CC4)C3)cc2)C1 [Cpd. No. 13, methyl ((1S,2R)-2-((S)-(1-((1-(4-((1-acryloylazetidin-3-yl)sulfonyl)phenyl)-3-fluoroazetidin-3-yl)methyl)piperidin-4-yl)(cyano)(3-fluorophenyl)methyl)cyclopentyl)carbamate] | 24
10 | N#Cc1ccc(N2CC(CN3CCC([C@@](C#N)(c4cccc(F)c4)[C@H]4CCC[C@@H]4NC(=O)CCl)CC3)C2)cc1 [compound 81, 2-chloro-N-((1S,2R)-2-((S)-cyano(1-((1-(4-cyanophenyl)azetidin-3-yl)methyl)piperidin-4-yl)(3-fluorophenyl)methyl)cyclopentyl)acetamide] | 9

The next molecules have a lower IC50 than those just listed; values first:

Row | IC50 [nM] | SMILES
11 | 4 | COC(=O)N[C@H]1CCC[C@@H]1[C@](C#N)(c1cccc(F)c1)C1CCN(CC2CN(c3ccc(S(=O)(=O)C4CN(C(=O)/C=C/CN5CCOCC5)C4)cc3)C2)CC1 [Cpd. No. 59, methyl ((1S,2R)-2-((S)-cyano(3-fluorophenyl)(1-((1-(4-((1-((E)-4-morpholinobut-2-enoyl)azetidin-3-yl)sulfonyl)phenyl)azetidin-3-yl)methyl)piperidin-4-yl)methyl)cyclopentyl)carbamate]
12 | 4 | C=CC(=O)Nc1ccc(S(=O)(=O)c2ccc(N3CC(CN4CCC([C@@](C#N)(c5cccc(F)c5)[C@H]5CCC[C@@H]5NC(=O)OC)CC4)C3)cc2)cc1 [Cpd. No. 61, methyl ((1S,2R)-2-((S)-(1-((1-(4-((4-acrylamidophenyl)sulfonyl)phenyl)azetidin-3-yl)methyl)piperidin-4-yl)(cyano)(3-fluorophenyl)methyl)cyclopentyl)carbamate]
13 | 4 | COC(=O)N[C@H]1CCC[C@@H]1[C@](C#N)(c1cccc(F)c1)C1CCN(CC2CN(c3ccc(S(=O)(=O)C4CN(C(=O)/C=C/CN5CCCCC5)C4)cc3)C2)CC1 [Cpd. No. 71, methyl ((1S,2R)-2-((S)-cyano(3-fluorophenyl)(1-((1-(4-((1-((E)-4-(piperidin-1-yl)but-2-enoyl)azetidin-3-yl)sulfonyl)phenyl)azetidin-3-yl)methyl)piperidin-4-yl)methyl)cyclopentyl)carbamate]
14 | 4 | C#CC(=O)N[C@H]1CCC[C@@H]1[C@](C#N)(c1cccc(F)c1)C1CCN(CC2CN(c3ccc(C#N)cc3)C2)CC1 [compound 82, N-((1S,2R)-2-((S)-cyano(1-((1-(4-cyanophenyl)azetidin-3-yl)methyl)piperidin-4-yl)(3-fluorophenyl)methyl)cyclopentyl)propiolamide]
15 | 2 | C=CC(=O)Nc1cccc(S(=O)(=O)c2ccc(N3CC(F)(CN4CCC([C@@](Cn5ccnc5CC)(c5cccc(F)c5)[C@H]5CCC[C@@H]5NC(=O)OC)CC4)C3)cc2)c1 [Cpd. No. 9, methyl ((1S,2R)-2-((S)-1-(1-((1-(4-((3-acrylamidophenyl)sulfonyl)phenyl)-3-fluoroazetidin-3-yl)methyl)piperidin-4-yl)-2-(2-ethyl-1H-imidazol-1-yl)-1-(3-fluorophenyl)ethyl)cyclopentyl)carbamate]
16 | 2 | C=CC(=O)Nc1ccc(S(=O)(=O)c2ccc(N3CC(CN4CCC([C@@](C#N)(c5cccc(F)c5)[C@H]5CCC[C@@H]5OC(=O)NC)CC4)C3)cc2)cc1 [Cpd. No. 10, (1S,2R)-2-((S)-(1-((1-(4-((4-acrylamidophenyl)sulfonyl)phenyl)azetidin-3-yl)methyl)piperidin-4-yl)(cyano)(3-fluorophenyl)methyl)cyclopentyl methylcarbamate]
17 | 2 | C=CC(=O)N1CC(S(=O)(=O)c2ccc(N3CC(CN4CCC([C@@](Cn5ccnc5CC)(c5cccc(F)c5)[C@H]5CCC[C@@H]5NC(=O)OC)CC4)C3)cc2)C1 [Cpd. No. 8, methyl ((1S,2R)-2-((S)-1-(1-((1-(4-((1-acryloylazetidin-3-yl)sulfonyl)phenyl)azetidin-3-yl)methyl)piperidin-4-yl)-2-(2-ethyl-1H-imidazol-1-yl)-1-(3-fluorophenyl)ethyl)cyclopentyl)carbamate]
18 | 2 | COC(=O)N[C@H]1CCC[C@@H]1[C@](C#N)(c1cccc(F)c1)C1CCN(CC2CN(c3ccc(S(=O)(=O)c4cccc(NC(=O)/C=C/CN(C)C)c4)cc3)C2)CC1 [Cpd. No. 63, methyl ((1S,2R)-2-((S)-cyano(1-((1-(4-((3-((E)-4-(dimethylamino)but-2-enamido)phenyl)sulfonyl)phenyl)azetidin-3-yl)methyl)piperidin-4-yl)(3-fluorophenyl)methyl)cyclopentyl)carbamate]
19 | 1 | CCc1nccn1C[C@@](c1cccc(F)c1)(C1CCN(CC2(F)CN(c3ccc(S(=O)(=O)C4CN(C(=O)/C=C/CN(C)C)C4)cc3)C2)CC1)[C@H]1CCC[C@@H]1NC(=O)OC [Cpd. No. 66, methyl ((1S,2R)-2-((S)-1-(1-((1-(4-((1-((E)-4-(dimethylamino)but-2-enoyl)azetidin-3-yl)sulfonyl)phenyl)-3-fluoroazetidin-3-yl)methyl)piperidin-4-yl)-2-(2-ethyl-1H-imidazol-1-yl)-1-(3-fluorophenyl)ethyl)cyclopentyl)carbamate]
